Experimental data reported in PubChem BioAssay AID1963858 (Molecular Pharmacology Branch, DTP, NCI, 2024).

Tested on: HOP-62 multicell spheroids with HUVEC/MSC, viability
Assay: Anticancer human tumor HOP-62 cell line growth inhibition [KRAS2];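 further: viability read after a week of compound exposure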;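 on viability, T/C: 100% = DMSO vehicle-treated spheroids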
Details: for IC50: curve of first compound; for viability, T/C: stronger effect = lower value
Procedure, shortened: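 Combination screen of spheroid viability in tumor-cell co-cultures with endothelial (HUVEC) and mesenchymal stem cell stroma. Each agent was tested in half-log dilutions, topping at clinical Cmax or at 10 microM without a known Cmax.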

[1] = second compound 0.1 µM, first compound 0.0316 µM
[2] = second compound 0.1 µM, first compound 0.1 µM
[3] = second compound 0.1 µM, first compound 0.316 µM
[4] = second compound 0.1 µM, first compound 1 µM
[5] = second compound 0.1 µM, first compound 3.16 µM
[6] = second compound 0.1 µM, first compound 10 µM
[7] = second compound 0.316 µM, first compound 0.0316 µM
[8] = second compound 0.316 µM, first compound 0.1 µM
[9] = second compound 0.316 µM, first compound 0.316 µM
[10] = second compound 0.316 µM, first compound 1 µM
[11] = second compound 0.316 µM, first compound 3.16 µM
[12] = second compound 0.316 µM, first compound 10 µM
[13] = second compound 1 µM, first compound 0.0316 µM
[14] = second compound 1 µM, first compound 0.1 µM
[15] = second compound 1 µM, first compound 0.316 µM
[16] = second compound 1 µM, first compound 1 µM
[17] = second compound 1 µM, first compound 3.16 µM
[18] = second compound 1 µM, first compound 10 µM
[19] = second compound 3.16 µM, first compound 0.0316 µM
[20] = second compound 3.16 µM, first compound 0.1 µM
[21] = second compound 3.16 µM, first compound 0.316 µM
[22] = second compound 3.16 µM, first compound 1 µM
[23] = second compound 3.16 µM, first compound 3.16 µM
[24] = second compound 3.16 µM, first compound 10 µM
[25] = second compound 10 µM, first compound 0.0316 µM
[26] = second compound 10 µM, first compound 0.1 µM
[27] = second compound 10 µM, first compound 0.316 µM
[28] = second compound 10 µM, first compound 1 µM
[29] = second compound 10 µM, first compound 3.16 µM
[30] = second compound 10 µM, first compound 10 µM

Structure (SMILES)	IC50 (second compound 0.1 µM) [nM]	IC50 (second compound 0.316 µM) [nM]	IC50 (second compound 1 µM) [nM]	IC50 (second compound 3.16 µM) [nM]	IC50 (second compound 10 µM) [nM]	viability, T/C [1] [%]	viability, T/C [2] [%]	viability, T/C [3] [%]	viability, T/C [4] [%]	viability, T/C [5] [%]	viability, T/C [6] [%]	viability, T/C [7] [%]	viability, T/C [8] [%]	viability, T/C [9] [%]	viability, T/C [10] [%]	viability, T/C [11] [%]	viability, T/C [12] [%]	viability, T/C [13] [%]	viability, T/C [14] [%]	viability, T/C [15] [%]	other results
COC(=O)c1ccc2c(C(=Nc3ccc(N(C)C(=O)CN4CCN(C)CC4)cc3)c3ccccc3)c(O)[nH]c2c1 + COc1cc2nc(C)nc(NC(C)c3cc(N)cc(C(F)(F)F)c3)c2cc1OC1CCOC1	797	325	52.2	< 31.6	< 31.6	98.5	85.7	53	50.9	34.9	10.4	67	57.1	51.5	25.5	26.3	20.8	54	46.1	33.4	viability, T/C [16]: 28.7%; viability, T/C [17]: 26.7%; viability, T/C [18]: 16.2%; viability, T/C [19]: 45.2%; viability, T/C [20]: 32.6%; viability, T/C [21]: 36.5%; viability, T/C [22]: 24.5%; viability, T/C [23]: 18.9%; viability, T/C [24]: 0.46%; viability, T/C [25]: 39.9%; viability, T/C [26]: 32.6%; viability, T/C [27]: 30.7%; viability, T/C [28]: 24.5%; viability, T/C [29]: 0.7%; viability, T/C [30]: 0.2%
COc1cc2nccc(Oc3ccc(NC(=O)C4(C(=O)Nc5ccc(F)cc5)CC4)cc3)c2cc1OC + C=CC(=O)N1CCN(c2nc(=O)n(-c3c(C)ccnc3C(C)C)c3nc(-c4c(O)cccc4F)c(F)cc23)C(C)C1	1710	1460	2210	1470	< 31.6	50.1	52.9	53.9	73.4	41.3	21.6	54.2	54.7	57.3	67.6	28.2	37.7	52.9	64.6	63.4	viability, T/C [16]: 72.3%; viability, T/C [17]: 44%; viability, T/C [18]: 18.4%; viability, T/C [19]: 55.1%; viability, T/C [20]: 57.3%; viability, T/C [21]: 63.8%; viability, T/C [22]: 64.5%; viability, T/C [23]: 29.6%; viability, T/C [24]: 15.4%; viability, T/C [25]: 33%; viability, T/C [26]: 39.8%; viability, T/C [27]: 36.7%; viability, T/C [28]: 36%; viability, T/C [29]: 26.6%; viability, T/C [30]: 6.56%
